Assay results from ChEMBL document CHEMBL5055672, “Design, Synthesis, Biological Evaluation, and Computational Studies of Novel Fluorinated Candidates as PI3K Inhibitors: Targeting Fluorophilic Binding Sites” (J Med Chem, 2021).

How the values were obtained:
LOX IMVI = assay: Cytotoxicity against human LOX IMVI cells assessed as growth inhibition at 10 uM after 48 hrs by sulforhodamine B assay; format: functional; details: read-out: GI
MDA-MB-231 = assay: Cytotoxicity against human MDA-MB-231 cells assessed as growth inhibition at 10 uM after 48 hrs by sulforhodamine B assay; format: functional; details: read-out: GI
[1] = Selectivity index, ratio of IC50 for human MCF-10A cells to IC50 for human MCF7 cells; format: toxicity; details: MCF-10A cells versus MCF7 cells, read-out: Ratio IC50
SW-620 = assay: Cytotoxicity against human SW-620 cells assessed as growth inhibition at 10 uM after 48 hrs by sulforhodamine B assay; format: functional; details: read-out: GI
MCF7 [2] = assay: Induction of cell cycle arrest in human MCF7 cells assessed as accumulation of cells at G1 phase at IC50 concentration by Propidium iodide staining based flow cytometric analysis (reference value: 61.45%); format: functional
NCI-H460 = assay: Cytotoxicity against human NCI-H460 cells assessed as growth inhibition at 10 uM after 48 hrs by sulforhodamine B assay; format: functional; details: read-out: GI
MCF7 [3] = assay: Induction of cell cycle arrest in human MCF7 cells assessed as accumulation of cells at S phase at IC50 concentration by Propidium iodide staining based flow cytometric analysis (reference value: 27.61%); format: functional
MCF7 [4] = assay: Antiproliferative activity against human MCF7 cells assessed as inhibition of cell growth incubated for 48 hrs by MTT assay; format: functional, cell-based; details: MCF7, 48 h
SNB-19 = assay: Cytotoxicity against human SNB-19 cells assessed as growth inhibition at 10 uM after 48 hrs by sulforhodamine B assay; format: functional; details: read-out: GI
CAKI-1 = assay: Cytotoxicity against human CAKI-1 cells assessed as growth inhibition at 10 uM after 48 hrs by sulforhodamine B assay; format: functional; details: read-out: GI
ACHN = assay: Cytotoxicity against human ACHN cells assessed as growth inhibition at 10 uM after 48 hrs by sulforhodamine B assay; format: functional; details: read-out: GI
HCT-116 = assay: Cytotoxicity against human HCT-116 cells assessed as growth inhibition at 10 uM after 48 hrs by sulforhodamine B assay; format: functional; details: read-out: GI
NCI/ADR-RES = assay: Cytotoxicity against human NCI-ADR-RES cells assessed as growth inhibition at 10 uM after 48 hrs by sulforhodamine B assay; format: functional; details: read-out: GI
OVCAR-8 = assay: Cytotoxicity against human OVCAR8 cells assessed as growth inhibition at 10 uM after 48 hrs by sulforhodamine B assay; format: functional; details: read-out: GI
MDA-MB-468 = assay: Cytotoxicity against human MDA-MB-468 cells assessed as growth inhibition at 10 uM after 48 hrs by sulforhodamine B assay; format: functional; details: read-out: GI
MCF7 [5] = assay: Induction of apoptosis in human MCF7 cells assessed as late apoptotic cells at 13.30 uM after 48 hrs by annexin V-FITC/propidium iodide staining based flow cytometric analysis (reference value: 0.14%); format: functional; details: dose 13.3 µM
MCF7 [6] = assay: Cytotoxicity against human MCF7 cells assessed as growth inhibition at 10 uM after 48 hrs by sulforhodamine B assay; format: functional; details: read-out: GI
SNB-75 = assay: Cytotoxicity against human SNB-75 cells assessed as growth inhibition at 10 uM after 48 hrs by sulforhodamine B assay; format: functional; details: read-out: GI
UO-31 = assay: Cytotoxicity against human UO-31 cells assessed as growth inhibition at 10 uM after 48 hrs by sulforhodamine B assay; format: functional; details: read-out: GI
HCT-15 = assay: Cytotoxicity against human HCT-15 cells assessed as growth inhibition at 10 uM after 48 hrs by sulforhodamine B assay; format: functional; details: read-out: GI
MCF7 [7] = assay: Induction of apoptosis in human MCF7 cells assessed as early apoptotic cells at 13.30 uM after 48 hrs by annexin V-FITC/propidium iodide staining based flow cytometric analysis (reference value: 0.36%); format: functional; details: dose 13.3 µM
[8] = biological target: T1, Phosphatidylinositol 4,5-bisphosphate 3-kinase catalytic subunit delta isoform (Homo sapiens, UniProt O00329); assay: Inhibition of PI3Kdelta (unknown origin) using PIP2 as substrate preincubated for 10 mins followed by substrate addition and measured after 1 hr by ELISA
T1 sequence (O00329 whole entry): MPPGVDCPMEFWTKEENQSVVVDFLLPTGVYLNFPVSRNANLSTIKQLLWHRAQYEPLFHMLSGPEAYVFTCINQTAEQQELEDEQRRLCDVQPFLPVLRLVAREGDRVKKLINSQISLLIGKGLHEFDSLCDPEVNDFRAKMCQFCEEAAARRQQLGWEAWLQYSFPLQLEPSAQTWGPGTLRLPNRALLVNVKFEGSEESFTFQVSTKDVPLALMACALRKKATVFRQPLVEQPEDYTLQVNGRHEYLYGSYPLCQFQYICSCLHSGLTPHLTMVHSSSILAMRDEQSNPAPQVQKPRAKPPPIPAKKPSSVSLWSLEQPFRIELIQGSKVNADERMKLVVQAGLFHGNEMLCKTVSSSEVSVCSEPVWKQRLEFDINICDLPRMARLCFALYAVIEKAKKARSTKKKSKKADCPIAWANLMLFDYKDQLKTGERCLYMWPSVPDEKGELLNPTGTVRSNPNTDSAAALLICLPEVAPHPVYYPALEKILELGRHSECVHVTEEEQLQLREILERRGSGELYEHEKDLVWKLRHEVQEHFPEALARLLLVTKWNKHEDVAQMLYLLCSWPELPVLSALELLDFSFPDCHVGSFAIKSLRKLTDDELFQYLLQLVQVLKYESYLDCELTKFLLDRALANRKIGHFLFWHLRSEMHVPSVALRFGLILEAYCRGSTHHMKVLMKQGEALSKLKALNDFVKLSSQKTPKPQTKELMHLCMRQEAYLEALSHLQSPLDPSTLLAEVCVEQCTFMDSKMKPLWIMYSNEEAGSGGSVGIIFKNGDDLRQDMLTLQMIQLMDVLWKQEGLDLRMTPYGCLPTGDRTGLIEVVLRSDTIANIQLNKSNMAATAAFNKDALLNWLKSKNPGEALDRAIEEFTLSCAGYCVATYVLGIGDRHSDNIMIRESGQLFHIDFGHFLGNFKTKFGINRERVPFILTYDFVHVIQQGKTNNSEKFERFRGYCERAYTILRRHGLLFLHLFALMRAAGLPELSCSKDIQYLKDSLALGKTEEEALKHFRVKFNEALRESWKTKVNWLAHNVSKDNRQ

MCF7 [9] = assay: Induction of cell cycle arrest in human MCF7 cells assessed as accumulation of cells at G2/M phase at IC50 concentration by Propidium iodide staining based flow cytometric analysis (reference value: 10.94%); format: functional
NCI-H522 = assay: Cytotoxicity against human NCI-H522 cells assessed as growth inhibition at 10 uM after 48 hrs by sulforhodamine B assay; format: functional; details: read-out: GI
A549 = assay: Cytotoxicity against human A549 cells assessed as growth inhibition at 10 uM after 48 hrs by sulforhodamine B assay; format: functional; details: read-out: GI
SR = assay: Cytotoxicity against human SR cells assessed as growth inhibition at 10 uM after 48 hrs by sulforhodamine B assay; format: functional; details: read-out: GI
[10] = biological target: Phosphatidylinositol 4,5-bisphosphate 3-kinase catalytic subunit beta isoform (Homo sapiens, UniProt P42338); assay: Inhibition of PI3Kbeta (unknown origin) using PIP2 as substrate preincubated for 10 mins followed by substrate addition and measured after 1 hr by ELISA
Chain of Phosphatidylinositol 4,5-bisphosphate 3-kinase catalytic subunit beta isoform (P42338 whole entry, canonical isoform): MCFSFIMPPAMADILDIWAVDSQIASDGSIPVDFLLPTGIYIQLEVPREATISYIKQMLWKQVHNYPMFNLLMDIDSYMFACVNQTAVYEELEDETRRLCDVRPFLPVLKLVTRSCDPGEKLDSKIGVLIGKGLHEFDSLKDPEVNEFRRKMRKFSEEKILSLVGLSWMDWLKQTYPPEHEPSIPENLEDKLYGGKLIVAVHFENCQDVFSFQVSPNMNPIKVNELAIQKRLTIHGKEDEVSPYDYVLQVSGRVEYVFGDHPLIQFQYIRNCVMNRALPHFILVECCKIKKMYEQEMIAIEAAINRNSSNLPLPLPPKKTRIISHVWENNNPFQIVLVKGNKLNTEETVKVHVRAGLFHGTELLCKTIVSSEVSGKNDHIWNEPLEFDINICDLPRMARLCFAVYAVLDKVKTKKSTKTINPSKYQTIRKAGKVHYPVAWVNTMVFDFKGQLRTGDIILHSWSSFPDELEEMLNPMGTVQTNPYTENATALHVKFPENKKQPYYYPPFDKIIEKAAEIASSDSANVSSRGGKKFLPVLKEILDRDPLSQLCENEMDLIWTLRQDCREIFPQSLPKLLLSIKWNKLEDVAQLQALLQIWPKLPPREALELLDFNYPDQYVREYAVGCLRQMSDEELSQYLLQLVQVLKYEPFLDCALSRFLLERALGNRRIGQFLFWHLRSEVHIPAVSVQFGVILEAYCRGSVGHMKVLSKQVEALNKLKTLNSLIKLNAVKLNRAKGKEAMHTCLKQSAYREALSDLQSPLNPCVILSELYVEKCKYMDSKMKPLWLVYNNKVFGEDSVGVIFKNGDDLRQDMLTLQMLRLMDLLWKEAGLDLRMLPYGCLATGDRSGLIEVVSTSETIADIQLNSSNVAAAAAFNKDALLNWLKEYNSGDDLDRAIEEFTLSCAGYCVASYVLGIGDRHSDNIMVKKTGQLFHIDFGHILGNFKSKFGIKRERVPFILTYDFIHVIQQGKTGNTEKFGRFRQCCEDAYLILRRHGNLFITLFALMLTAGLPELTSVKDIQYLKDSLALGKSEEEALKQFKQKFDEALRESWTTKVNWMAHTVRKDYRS

## COC(=O)/C=C1\S/C(=N\N=C\c2ccc(OCC(F)(F)F)cc2)N(c2ccccc2)C1=O
LOX IMVI
  inhibition of growth at 10 µM: 24.1%
MDA-MB-231
  inhibition of growth at 10 µM: 21.5%
[1]
  selectivity ratio: 1.81
SW-620
  inhibition of growth at 10 µM: 12.4%
MCF7 [2]
  Activity: 55.47%
NCI-H460
  inhibition of growth at 10 µM: 14.2%
MCF7 [3]
  Activity: 36.02%
MCF7 [4]
  IC50: 13.3 µM
SNB-19
  inhibition of growth at 10 µM: 18.2%
CAKI-1
  inhibition of growth at 10 µM: 26.6%
ACHN
  inhibition of growth at 10 µM: 24%
HCT-116
  inhibition of growth at 10 µM: 28.8%
NCI/ADR-RES
  inhibition of growth at 10 µM: 24.6%
OVCAR-8
  inhibition of growth at 10 µM: 35.5%
MDA-MB-468
  inhibition of growth at 10 µM: 47.6%
MCF7 [5]
  Activity: 9.42%
MCF7 [6]
  inhibition of growth at 10 µM: 33.2%
SNB-75
  inhibition of growth at 10 µM: 28.2%
UO-31
  inhibition of growth at 10 µM: 24.8%
HCT-15
  inhibition of growth at 10 µM: 17.3%
MCF7 [7]
  Activity: 2.71%
[8]
  IC50: 121 µM
MCF7 [9]
  Activity: 8.51%
NCI-H522
  inhibition of growth at 10 µM: 12.2%
A549
  inhibition of growth at 10 µM: 15.3%
SR
  inhibition of growth at 10 µM: 24.7%
[10]
  IC50: 53.5 µM
